From patent US11478451B1, “Macrocyclic chlorine substituted indole derivatives” (Bayer Aktiengesellschaft, priority 2017, dated 2022)
Where a name gives a salt, the structure may show the parent alone.

Key:
[1] = system: DMS-114 cells; experiment: Antiproliferation assay (CellTiter-Glo, 72 h), DMS-114; format: cell-based; conditions: IC50, median; DMS-114, 72 h; read-out: Antiproli DMS-114 [M] median
How it was run: (§1)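 Cells plated in treatment plates plus a day 0 reference plate; incubated 72 h at 37 °C; CellTiter-Glo added, 10 min incubation, luminescence read; day 0 plate read at time zero.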

[2] = system: KYSE-180 cells; experiment: Antiproliferation assay (CellTiter-Glo, 72 h), KYSE-180; format: cell-based; conditions: IC50, median; KYSE-180, 72 h; read-out: Antiproli KYSE-180 [M] median
Experimental: (§2) Assessment of the Anti-Proliferative Effect of Compounds in Different Cell Lines
(§3) The impact of compounds on the proliferation of different cell lines was assessed using the CellTiter-Glo® Luminescent Cell Viability reagent from Promega (G7573).
(§4) In parallel, cells were plated in a reference (day 0) plate for time zero determination.
(§5) Rim wells were excluded. The cells were incubated for 72 h hours in a humidified incubator at 37° C. The day 0 plate was measured by adding 30 μL/well of CTG solution (CellTiter-Glo® Luminescent Cell Viability reagent, Promega G7573) to time zero wells in the reference plate followed by a 10 minutes incubation and luminescence reading at 0.1 ms. using the PHERAstar FS microplate reader (BMG Labtech).
(§6) After 72 h incubation, the treated plates were measured in the same way as the day 0 plate mentioned above.

[3] = system: T47D cells; experiment: Antiproliferation assay (CellTiter-Glo, 72 h), T47D; format: cell-based; conditions: IC50, median, T47D (head printed T4713), read-out: Antiproli T4713 [M] median
Experimental: as §2, §3, §4, §5, §6

[4] = system: HMC-1-8 cells; experiment: Antiproliferation assay (CellTiter-Glo, 72 h), HMC-1-8; format: cell-based; conditions: IC50, median; HMC-1-8, 72 h; read-out: Antiproli HMC-1-8 [M] median
How it was run: as §1

[5] = system: SNU-389 cells; experiment: Antiproliferation assay (CellTiter-Glo, 72 h), SNU-389; format: cell-based; conditions: IC50, median; SNU-389, 72 h; read-out: Antiproli SNU-389 [M] median
How it was run: as §1

[6] = system: SUDHL10 cells; experiment: Antiproliferation assay (CellTiter-Glo, 72 h), SUDHL10; format: cell-based; conditions: IC50, median; SUDHL10, 72 h; read-out: Antiproli SUDHL10 [M] (median)
Experimental: as §2, §3, §4, §5, §6

[7] = system: SK-BR-3 cells; experiment: Antiproliferation assay (CellTiter-Glo, 72 h), SK-BR-3; format: cell-based; conditions: IC50, median; SK-BR-3, 72 h; read-out: Antiproli SK-BR-3 [M] median
Experimental: as §2, §3, §4, §5, §6

[8] = system: AMO-1 cells; experiment: Antiproliferation assay (CellTiter-Glo, 72 h), AMO-1; format: cell-based; conditions: IC50, median; AMO-1, 72 h; read-out: Antiproli AMO-1 [M] median
How it was run: as §1

[9] = system: MV-4-11 cells; experiment: Antiproliferation assay (CellTiter-Glo, 72 h), MV-4-11; format: cell-based; conditions: IC50, median; MV-4-11, 72 h; read-out: Antiproli MV-4-11 [M] median
How it was run: as §1

[10] = system: A2058 cells; experiment: Antiproliferation assay (CellTiter-Glo, 72 h), A2058; format: cell-based; conditions: IC50, median; A2058, 72 h; read-out: Antiproli A2058 [M] median
Experimental: as §2, §3, §4, §5, §6

[11] = system: SUDHL10 cells; experiment: Induction of cytotoxicity (CellTiter-Glo, 5 h), SUDHL10; conditions: read-out: Cytotox SUDHL10 [M] (median); IC50, median; SUDHL10, 5 h
[12] = system: SUDHL5 cells; experiment: Antiproliferation assay (CellTiter-Glo, 72 h), SUDHL5; format: cell-based; conditions: IC50, median; SUDHL5, 72 h; read-out: Antiproli SUDHL5 [M] (median)
How it was run: as §1

[13] = target: MCL-1 (Homo sapiens (Human), UniProt Q07820, K194A/K197A/R201A); experiment: Protein-compound interaction assay (SPR assay); format: binding; conditions: equilibrium dissociation constant, geometric mean, SPR 25° C.
Excerpt: Protein-Compound Interaction Assay (SPR Assay)
The ability of the compounds described in this invention to bind to MCL-1 may be determined using surface plasmon resonance (SPR). This allows for the quantification of binding in terms of the equilibrium dissociation constant (KD [M]), as well as association and dissociation rate constants (kon [1/M 1/s] and koff [1/s], respectively). The measurements may be performed using Biacore® T200 or Biacore® S200 instruments (GE Healthcare).
Subsequently, a solution of 1 M ethanolamine-HCl (GE Healthcare) was injected to block unreacted groups, resulting in approximately 400-2500 response units (RU) of immobilized protein. A reference surface was generated by treatment with NHS-EDC and ethanolamine-HCl.
The double-referenced sensorgrams were fit to a simple reversible Langmuir 1:1 reaction mechanism as implemented in the Biacore® T200 and S200 evaluation software (T200 evaluation software version 2.0 and S200 evaluation software version 1.0, GE Healthcare).

Chain of MCL-1 (Q07820 whole entry K194A/K197A/R201A, looked up): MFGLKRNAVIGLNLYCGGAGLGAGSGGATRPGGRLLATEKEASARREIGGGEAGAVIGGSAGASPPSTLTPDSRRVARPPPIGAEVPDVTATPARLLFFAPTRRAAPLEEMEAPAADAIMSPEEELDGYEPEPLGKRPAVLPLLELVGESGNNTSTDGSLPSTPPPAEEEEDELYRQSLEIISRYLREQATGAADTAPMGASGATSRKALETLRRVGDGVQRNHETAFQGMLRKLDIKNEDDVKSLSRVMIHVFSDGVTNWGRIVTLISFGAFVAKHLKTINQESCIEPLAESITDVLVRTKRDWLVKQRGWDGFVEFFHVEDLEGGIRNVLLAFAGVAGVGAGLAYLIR

| Compound | IC50 [1] | IC50 [2] | IC50 [3] | IC50 [4] | IC50 [5] | IC50 [6] | IC50 [7] | IC50 [8] | IC50 [9] | IC50 [10] | IC50 [11] | IC50 [12] | Kd [13] |
| --- | --- | --- | --- | --- | --- | --- | --- | --- | --- | --- | --- | --- | --- |
| Cc1c2c(nn1C)CN(C)CCCCn1c(C(=O)O)c(CCCOc3cccc4ccccc34)c3ccc(Cl)c-2c31 (single isomer, unassigned; enantiomer 1) [Example 12, (+)-4-chloro-2,3,14-trimethyl-7-[3-(naphthalen-1-yloxy)propyl]-10,11,12,13,14,15-hexahydro-2H-pyrazolo[3′,4′:8,9][1,6]diazacycloundecino[10,11,1-hi]indole-8-carboxylic acid-N-ethylethanamine salt (Enantiomer 1)] | 1.32e-06 M | 3.79e-06 M | 7.1e-06 M | 1.6e-06 M | 7.22e-07 M | 1.4e-07 M | 6.67e-07 M | 3.3e-07 M | 4.41e-07 M | 4.83e-06 M | 1.4e-07 M | 1.7e-07 M |  |
| Cc1c2c(nn1C)CN(C)CCCCn1c(C(=O)O)c(CCCOc3cccc4cc(F)ccc34)c3ccc(Cl)c-2c31 (single isomer, unassigned; enantiomer 1) [Example 31, (+)-4-chloro-7-{3-[(6-fluoronaphthalen-1-yl)oxy]propyl}-2,3,14-trimethyl-10,11,12,13,14,15-hexahydro-2H-pyrazolo[3′,4′:8,9][1,6]diazacycloundecino[10,11,1-hi]indole-8-carboxylic acid-N-ethylethanamine salt (Enantiomer 1)] |  |  |  | 1.9e-06 M |  |  |  | 1.7e-07 M | 2.75e-07 M |  |  |  | 0.43 nM |
